Tested on: 958667-338-R-J2-PDC tumor spheroids viability
Assay: Anticancer human tumor 958667-338-R-J2-PDC patient-derived colon adenocarcinoma cell line growth inhibition [PI3K]
Conditions: spheroids with HUVEC and MSC; for IC50: curve of first compound; for viability, T/C: stronger effect = lower value
How it was run: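 Three cell types, namely tumor cells, endothelial cells and mesenchymal stem cells, formed each spheroid. Combinations with four PI3K inhibitors were screened at clinically achievable concentrations decreasing by half-log, and spheroid viability was recorded.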

[1] = second compound 0.0316 µM, first compound 0.0316 µM
[2] = second compound 0.0316 µM, first compound 0.1 µM
[3] = second compound 0.1 µM, first compound 0.0316 µM
[4] = second compound 0.1 µM, first compound 0.1 µM
[5] = second compound 0.316 µM, first compound 0.0316 µM
[6] = second compound 0.316 µM, first compound 0.1 µM
[7] = second compound 1 µM, first compound 0.0316 µM
[8] = second compound 1 µM, first compound 0.1 µM
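Also: spheroids exposed to compounds for seven days before readout.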

## C#Cc1c(F)ccc2cc(O)cc(-c3ncc4c(N5CC6CCC(C5)N6)nc(OCC56CCCN5CC(F)C6)nc4c3F)c12 (centres undefined) + COc1c(OCCCN2CCOCC2)ccc2c3n(c(=NC(=O)c4cnc(N)nc4)nc12)CCN3
Second compound 0.00316 µM
  IC50: > 10000 nM
Second compound 0.01 µM
  IC50: > 10000 nM
Second compound 0.0316 µM
  IC50: 6500 nM
Second compound 0.1 µM
  IC50: 1090 nM
Second compound 0.316 µM
  IC50: < 31.6 nM
Second compound 1 µM
  IC50: < 31.6 nM
Second compound 0.00316 µM, first compound 0.0316 µM
  viability, T/C: 112%
Second compound 0.00316 µM, first compound 0.1 µM
  viability, T/C: 107%
Second compound 0.00316 µM, first compound 0.316 µM
  viability, T/C: 83.9%
Second compound 0.00316 µM, first compound 1 µM
  viability, T/C: 108%
Second compound 0.00316 µM, first compound 3.16 µM
  viability, T/C: 86.9%
Second compound 0.00316 µM, first compound 10 µM
  viability, T/C: 74%
Second compound 0.01 µM, first compound 0.0316 µM
  viability, T/C: 93.4%
Second compound 0.01 µM, first compound 0.1 µM
  viability, T/C: 86.9%
Second compound 0.01 µM, first compound 0.316 µM
  viability, T/C: 109%
Second compound 0.01 µM, first compound 1 µM
  viability, T/C: 73.3%
Second compound 0.01 µM, first compound 3.16 µM
  viability, T/C: 68.7%
Second compound 0.01 µM, first compound 10 µM
  viability, T/C: 56.7%
[1]
  viability, T/C: 70.8%
[2]
  viability, T/C: 86.9%
Second compound 0.0316 µM, first compound 0.316 µM
  viability, T/C: 73.2%
Second compound 0.0316 µM, first compound 1 µM
  viability, T/C: 70.4%
Second compound 0.0316 µM, first compound 3.16 µM
  viability, T/C: 62.1%
Second compound 0.0316 µM, first compound 10 µM
  viability, T/C: 42.9%
[3]
  viability, T/C: 71.7%
[4]
  viability, T/C: 63.4%
Second compound 0.1 µM, first compound 0.316 µM
  viability, T/C: 54.6%
Second compound 0.1 µM, first compound 1 µM
  viability, T/C: 51.6%
Second compound 0.1 µM, first compound 3.16 µM
  viability, T/C: 46.7%
Second compound 0.1 µM, first compound 10 µM
  viability, T/C: 28%
[5]
  viability, T/C: 35.1%
[6]
  viability, T/C: 41.2%
Second compound 0.316 µM, first compound 0.316 µM
  viability, T/C: 35.8%
Second compound 0.316 µM, first compound 1 µM
  viability, T/C: 32.7%
Second compound 0.316 µM, first compound 3.16 µM
  viability, T/C: 20.4%
Second compound 0.316 µM, first compound 10 µM
  viability, T/C: 10%
[7]
  viability, T/C: 14.1%
[8]
  viability, T/C: 18.1%
Second compound 1 µM, first compound 0.316 µM
  viability, T/C: 24.2%
Second compound 1 µM, first compound 1 µM
  viability, T/C: 15.9%
Second compound 1 µM, first compound 3.16 µM
  viability, T/C: 8.98%
Second compound 1 µM, first compound 10 µM
  viability, T/C: 1.67%

## CC(=O)c1c(C)c2cnc(Nc3ccc(N4CCNCC4)cn3)nc2n(C2CCCC2)c1=O + Cc1nc(NC(=O)N2CCCC2C(N)=O)sc1-c1ccnc(C(C)(C)C(F)(F)F)c1
Second compound 0.0316 µM
  IC50: > 100 nM
Second compound 0.1 µM
  IC50: > 100 nM
Second compound 0.316 µM
  IC50: > 100 nM
Second compound 1 µM
  IC50: > 100 nM
Second compound 3.16 µM
  IC50: > 100 nM
Second compound 10 µM
  IC50: > 100 nM
Second compound 0.0316 µM, first compound 0.000316 µM
  viability, T/C: 104%
Second compound 0.0316 µM, first compound 0.001 µM
  viability, T/C: 77.1%
Second compound 0.0316 µM, first compound 0.00316 µM
  viability, T/C: 96%
Second compound 0.0316 µM, first compound 0.01 µM
  viability, T/C: 94.3%
[1]
  viability, T/C: 95.8%
[2]
  viability, T/C: 73.7%
Second compound 0.1 µM, first compound 0.000316 µM
  viability, T/C: 97.2%
Second compound 0.1 µM, first compound 0.001 µM
  viability, T/C: 96.8%
Second compound 0.1 µM, first compound 0.00316 µM
  viability, T/C: 106%
Second compound 0.1 µM, first compound 0.01 µM
  viability, T/C: 88.7%
[3]
  viability, T/C: 103%
[4]
  viability, T/C: 94.7%
Second compound 0.316 µM, first compound 0.000316 µM
  viability, T/C: 104%
Second compound 0.316 µM, first compound 0.001 µM
  viability, T/C: 83.1%
Second compound 0.316 µM, first compound 0.00316 µM
  viability, T/C: 84.4%
Second compound 0.316 µM, first compound 0.01 µM
  viability, T/C: 91.5%
[5]
  viability, T/C: 78.1%
[6]
  viability, T/C: 73.7%
Second compound 1 µM, first compound 0.000316 µM
  viability, T/C: 87.8%
Second compound 1 µM, first compound 0.001 µM
  viability, T/C: 78.5%
Second compound 1 µM, first compound 0.00316 µM
  viability, T/C: 73.4%
Second compound 1 µM, first compound 0.01 µM
  viability, T/C: 62.2%
[7]
  viability, T/C: 74.5%
[8]
  viability, T/C: 66.2%
Second compound 3.16 µM, first compound 0.000316 µM
  viability, T/C: 72%
Second compound 3.16 µM, first compound 0.001 µM
  viability, T/C: 74%
Second compound 3.16 µM, first compound 0.00316 µM
  viability, T/C: 59.3%
Second compound 3.16 µM, first compound 0.01 µM
  viability, T/C: 67.2%
Second compound 3.16 µM, first compound 0.0316 µM
  viability, T/C: 70.3%
Second compound 3.16 µM, first compound 0.1 µM
  viability, T/C: 71.9%
Second compound 10 µM, first compound 0.000316 µM
  viability, T/C: 52.8%
Second compound 10 µM, first compound 0.001 µM
  viability, T/C: 55.5%
Second compound 10 µM, first compound 0.00316 µM
  viability, T/C: 52.2%
Second compound 10 µM, first compound 0.01 µM
  viability, T/C: 55.4%
Second compound 10 µM, first compound 0.0316 µM
  viability, T/C: 51.4%
Second compound 10 µM, first compound 0.1 µM
  viability, T/C: 58.5%

Reference: PubChem BioAssay AID1963963 (Molecular Pharmacology Branch, DTP, NCI, 2024)
